According to US12168763B2, “Microorganisms and methods for reducing bacterial contamination” (Melio Peptide Systems Inc., priority 2020, dated 2024):

test system: L. fermentum NCCB 46038; assay: Soft-agar overlay assay of S. cerevisiae BY4742 secreting persulcatusin variants from pHVXU plasmids; details: alanine scanning of persulcatusin; relative to wild-type; soft-agar overlay

Row | Substance | Change in activity
1 | Y36A: persulcatusin (SEQ ID NO: 1) alanine-scan variant Y36A (GFGCPFNQGACHRHCRSIGRRGGYCAGLFKQTCTCASR; listed as Ixodes persulcatus) [Mutation Y36A] | −
2 | H14A: persulcatusin (SEQ ID NO: 1) alanine-scan variant H14A (GFGCPFNQGACHRACRSIGRRGGYCAGLFKQTCTCYSR; listed as Ixodes persulcatus) [Mutation H14A] | −
3 | G27A: persulcatusin (SEQ ID NO: 1) alanine-scan variant G27A (GFGCPFNQGACHRHCRSIGRRGGYCAALFKQTCTCYSR; listed as Ixodes persulcatus) [Mutation G27A] | −
4 | C35A: persulcatusin (SEQ ID NO: 1) alanine-scan variant C35A (GFGCPFNQGACHRHCRSIGRRGGYCAGLFKQTCTAYSR; listed as Ixodes persulcatus) [Mutation C35A] | −
5 | H12A: persulcatusin (SEQ ID NO: 1) alanine-scan variant H12A (GFGCPFNQGACARHCRSIGRRGGYCAGLFKQTCTCYSR; listed as Ixodes persulcatus) [Mutation H12A] | −
6 | Engineered persulcatusin with [Mutation R21A, Engineered persulcatusin with [R21A]] | +
7 | S17A: persulcatusin (SEQ ID NO: 1) alanine-scan variant S17A (GFGCPFNQGACHRHCRAIGRRGGYCAGLFKQTCTCYSR; listed as Ixodes persulcatus) [Mutation S17A] | −
8 | G1A: persulcatusin (SEQ ID NO: 1) alanine-scan variant G1A (AFGCPFNQGACHRHCRSIGRRGGYCAGLFKQTCTCYSR; listed as Ixodes persulcatus) [Mutation G1A] | −
9 | Engineered persulcatusin with [Mutation R13A, Engineered persulcatusin with [R13A]] | +
10 | Q31A: persulcatusin (SEQ ID NO: 1) alanine-scan variant Q31A (GFGCPFNQGACHRHCRSIGRRGGYCAGLFKATCTCYSR; listed as Ixodes persulcatus) [Mutation Q31A] | −
11 | Engineered persulcatusin with [Mutation R16A, Engineered persulcatusin with [R16A]] | +
12 | Engineered persulcatusin with [Mutation R38A, Engineered persulcatusin with [R38A]] | +
13 | T34A: persulcatusin (SEQ ID NO: 1) alanine-scan variant T34A (GFGCPFNQGACHRHCRSIGRRGGYCAGLFKQTCACYSR; listed as Ixodes persulcatus) [Mutation T34A] | −
14 | Engineered persulcatusin with [Mutation F6A, Engineered persulcatusin with [F6A]] | +
15 | Engineered persulcatusin with [Mutation F29A, Engineered persulcatusin with [F29A]] | +
16 | T32A: persulcatusin (SEQ ID NO: 1) alanine-scan variant T32A (GFGCPFNQGACHRHCRSIGRRGGYCAGLFKQACTCYSR; listed as Ixodes persulcatus) [Mutation T32A] | −
17 | C33A: persulcatusin (SEQ ID NO: 1) alanine-scan variant C33A (GFGCPFNQGACHRHCRSIGRRGGYCAGLFKQTATCYSR; listed as Ixodes persulcatus) [Mutation C33A] | −
18 | C11A: persulcatusin (SEQ ID NO: 1) alanine-scan variant C11A (GFGCPFNQGAAHRHCRSIGRRGGYCAGLFKQTCTCYSR; listed as Ixodes persulcatus) [Mutation C11A] | −
19 | G22A: persulcatusin (SEQ ID NO: 1) alanine-scan variant G22A (GFGCPFNQGACHRHCRSIGRRAGYCAGLFKQTCTCYSR; listed as Ixodes persulcatus) [Mutation G22A] | −
20 | N7A: persulcatusin (SEQ ID NO: 1) alanine-scan variant N7A (GFGCPFAQGACHRHCRSIGRRGGYCAGLFKQTCTCYSR; listed as Ixodes persulcatus) [Mutation N7A] | −
21 | Engineered persulcatusin with [Mutation L28A, Engineered persulcatusin with [L28A]] | +
22 | C25A: persulcatusin (SEQ ID NO: 1) alanine-scan variant C25A (GFGCPFNQGACHRHCRSIGRRGGYAAGLFKQTCTCYSR; listed as Ixodes persulcatus) [Mutation C25A] | −
23 | Engineered persulcatusin with [Mutation R20A, Engineered persulcatusin with [R20A]] | +
24 | G23A: persulcatusin (SEQ ID NO: 1) alanine-scan variant G23A (GFGCPFNQGACHRHCRSIGRRGAYCAGLFKQTCTCYSR; listed as Ixodes persulcatus) [Mutation G23A] | −
25 | K30A: persulcatusin (SEQ ID NO: 1) alanine-scan variant K30A (GFGCPFNQGACHRHCRSIGRRGGYCAGLFAQTCTCYSR; listed as Ixodes persulcatus) [Mutation K30A] | −
26 | Y24A: persulcatusin (SEQ ID NO: 1) alanine-scan variant Y24A (GFGCPFNQGACHRHCRSIGRRGGACAGLFKQTCTCYSR; listed as Ixodes persulcatus) [Mutation Y24A] | −
27 | C4A: persulcatusin (SEQ ID NO: 1) alanine-scan variant C4A (GFGAPFNQGACHRHCRSIGRRGGYCAGLFKQTCTCYSR; listed as Ixodes persulcatus) [Mutation C4A] | −
28 | C15A: persulcatusin (SEQ ID NO: 1) alanine-scan variant C15A (GFGCPFNQGACHRHARSIGRRGGYCAGLFKQTCTCYSR; listed as Ixodes persulcatus) [Mutation C15A] | −

same assay, conditions: random mutagenesis clones of persulcatusin; increase of growth inhibition zones

Row | Substance | Increase in Activity
29 | Engineered persulcatusin with [Mutation S7-140-10, Engineered persulcatusin with [R13S/R21G]] | +
30 | Engineered persulcatusin with [Mutation S7-192-22, Engineered persulcatusin with [F6L/N7D/H14Q]] | ++
31 | Engineered persulcatusin with [Mutation S7-140-8, Engineered persulcatusin with [R21G]] | +
32 | Engineered persulcatusin with [Mutation S7-140-2, Engineered persulcatusin with [R13S]] | +
33 | Engineered persulcatusin with [Mutation S7-176-4-1, Engineered persulcatusin with [F6V/R13S/A26D]] | ++
34 | Engineered persulcatusin with [Mutation S7-140-7, Engineered persulcatusin with [R16G/F29V]] | +
35 | Engineered persulcatusin with [Mutation S7-140-9, Engineered persulcatusin with [A26D]] | +
36 | Engineered persulcatusin with [Mutation S7-140-34, Engineered persulcatusin with [R13S/R20T]] | ++
37 | Engineered persulcatusin with [Mutation S-176-2-1, Engineered persulcatusin with [F6V/R13S]] | ++
38 | Engineered persulcatusin with [Mutation S7-140-42, Engineered persulcatusin with [N7D/F29L]] | ++
39 | Engineered persulcatusin with [Mutation S7-192-4, Engineered persulcatusin with [N7D/H14F/R16S]] | ++
40 | Engineered persulcatusin with [Mutation S7-192-7, Engineered persulcatusin with [G9D/H14Q]] | ++
41 | Engineered persulcatusin with [Mutation S7-176-3-1, Engineered persulcatusin with [R13S/R21S]] | ++
42 | Engineered persulcatusin with [Mutation S7-192-26, Engineered persulcatusin with [F6L/G9D/H14Q]] | +++
43 | Engineered persulcatusin with [Mutation S7-144-43, Engineered persulcatusin with [R13S/L28M]] | +
44 | Engineered persulcatusin with [Mutation S7-140-1, Engineered persulcatusin with [R13S/I18N]] | +
45 | Engineered persulcatusin with [Mutation S7-144-59, Engineered persulcatusin with [R13S/R16K]] | +
46 | Engineered persulcatusin with [Mutation S7-144-75, Engineered persulcatusin with [R13S/A26D]] | ++
47 | Engineered persulcatusin with [Mutation S7-144-11, Engineered persulcatusin with [R16S/R20S]] | ++
48 | Engineered persulcatusin with [Mutation S7-176-5-1, Engineered persulcatusin with [F6L/G9D/R20K]] | ++
49 | Engineered persulcatusin with [Mutation S7-156-36, Engineered persulcatusin with [F6S/R13S/R16K/I18V]] | ++
50 | Engineered persulcatusin with [Mutation S7-156-22, Engineered persulcatusin with [G9D/I18F/F29L]] | +
